Assay results from article PMC7426938, “Induction of mitochondria-mediated apoptosis and suppression of tumor growth in zebrafish xenograft model by cyclic dipeptides identified from Exiguobacterium acetylicum” (Scientific Reports, 2020).

What was measured:
HT-29 cells = assay: Annexin V-FITC/PI double staining, flow cytometry; assay type: cell-based, human; conditions: 24 h; for EAC Q3 early apoptotic cells, fold change / LA/NC Q2 late apoptotic or/and necrotic cells, fold change / Q1 + Q2 total dead cells, fold change / Q1 dead cells, fold change / Q2 + Q3 total apoptotic cells, fold change: vs CTL; for viability at 50 µM / viability at 100 µM / viability at 200 µM: Homo sapiens, HT-29, quadrant plot, read-out: Percentage of viable (Q4) cells
Description: The dead, necrotic, and apoptotic cells were analyzed by annexin V/PI double staining method, which was used to detect the externalization of phosphatidylserine (PS). Briefly, cells at the density of 4.5 × 10^4 cells/well were seeded into 6-well plates and treated with or without DKPs for 24 h. Subsequently, both floating and adherent cells were harvested by centrifugation at 1,500 rpm for 5 min, then re-suspended in 300 μL of 1X binding buffer, followed by 3 μL of annexin V-FITC and propidium iodide (PI) (Apoptosis Detection kit, Lead Gen, Taiwan) was added into each sample and incubated for 20 min at room temperature in the dark following the protocol recommended by the manufactures. Cells were analyzed by flow cytometry (FACS Calibur, Becton Dickinson, CA, USA) using WinMDI 2.9 software (La Jolla, CA, USA). The individual populations can be defined using quadrant gates, the number of cells in each quadrant indicated the following: Quadrant-1 (Q1): annexin V^-/PI^+ cells were considered as dead cells; Quadrant-2 (Q2): Annexin V^+/PI^+ cells were considered as late apoptotic and necrotic cells; Quadrant-3 (Q3): Annexin V^+/PI^− cells were considered as early apoptotic cells; Quadrant-4 (Q4): Annexin V^-/PI^- cells were considered as healthy. Data were analyzed using FlowJo V12.1 software (Tree stat, Stanford, CA, USA).

[1] = test system: Cytc protein in HT-29 cells; assay: Western blot, Cytc protein; assay type: cell-based, human; conditions: 100 μM, 24 h, whole-cell lysate, vs untreated cells
Description: Total protein was isolated from HT-29 cells by using lysis buffer. Cells were collected by centrifugation at 1,500 rpm for 5 min. After that, cell pellets were re-suspended with RIPA lysis buffer consisting of 1 mM protease inhibitor cocktail (PIC; Sigma-Aldrich; P8340) and lysed at […] for 1 h. After incubation, the protein was obtained by centrifugation at 13,000 × g for 15 min and kept for − 80 °C until analysis. Also, mitochondrial and cytosolic fractions were obtained by using fraction lysis buffer as described previously[50] with minor modifications. Lysed cells were kept in ice for 10 min and then cells were triturated by a 27 gauge syringe (25 strokes) to become homogeneous followed by centrifugation at 13,000 × g for 30 min. The collected supernatant was the cytosolic fraction. After the pellet was washed with lysis buffer and it was dissolved in lysis buffer for protein quantification. Protein concentration was measured by Pierce BCA protein assay kit (Thermo Scientific Laboratories, Rockford, USA) according to the manufacturer instructions. Equal amounts of proteins from all samples were separated by 10% SDS–polyacrylamide gel electrophoresis (SDS-PAGE) and electrotransferred. Polyvinylidene difluoride (PVDF) membrane was blocked with 5% skimmed milk for 1 h, followed by incubation with primary (Cytochrome-c: sc-13560; Bid: sc-11423; COX-IV: #4850; 1:2000; GAPDH: #3683; 1:10,000) and HRP-conjugated secondary (Got Anti-mouse IgG: 20102; Got anti-rabbit IgG: 20202: 1:10,000) antibodies against specific proteins. The protein signals were detected by Enhanced Chemiluminescence (ECL) detection kit (Amersham Piscataway, NJ, USA). The protein expression levels were analyzed by measuring the intensity of the band from scanned films using Image-J software. GAPDH and COX-IV served as a housekeeping protein to normalize the expression levels.

[2] = test system: CM-Dil labelled HT-29 xenograft in zebrafish embryos; assay: Zebrafish HT-29 xenograft antitumor assay; assay type: in vivo, zebrafish (Danio rerio); parameters: inhibition of tumor growth: concentration or dose not given beside the values; conditions: for inhibition of tumor growth: 24 hpi; for inhibition of tumor growth rate: 48 hpi; for inhibition of tumor growth rate / tumor growth reduction: 200 μM; for tumor growth reduction: 72 hpi
Description: For cell labelling, HT-29 cells were incubated with cell tracker CM-Dil (Invitrogen, Carlsbad, CA, USA) dye at a final volume was 20 µL/mL for 25 min at 37 °C. To remove the unstrained dye, cells were washed twice and re-suspended with 1X PBS, pH 7.4 to a final density of 2.1 × 10^6 cells/mL. Prior transplantation, CM-Dil labelled cells were assessed for viability using trypan blue exclusion assay. More than > 90% of viable cells were used. For xenotransplantation, 48-hours post-fertilization (hpf) wild-type ABiC embryos were anaesthetized in 0.01% tricaine methanesulfonate (Sigma-Aldrich; MS222) solution containing 0.3% phenylthiocarbamide (PTU; Sigma-Aldrich; P7629). After anesthetization, CM-Dil (a lipophilic fluorescent tracking dye) labelled HT-29 cells grafted into the yolk sac of each zebrafish embryos by using a microinjector IM-300 (Narishige, Tokyo, Japan). After injection, embryos were incubated for 1 h at 28 °C. For confirmation of the visible cell mass at the injection site, zebrafish were transferred to an incubator and maintained at 37 °C.
[…] CM-Dil labelled HT-29 xenograft zebrafish embryos were randomly selected and hosed into 4 replicate wells in 12-well cell culture plates (5 embryos/well; 20 embryos/treatment group; 20 × 4 = 80). The different doses (50, 100 and 200 μM) of all DKPs were treated with transplanted embryos. Before DKPs treatment, the initial fluorescence intensity of transplanted cancer cells was measured at 0 hour post-injection (hpi). At the end of experiment 24, 48, and 72 hpi, all embryos were selected from each well and were photographed under an inverted fluorescence microscope (Nikon Eclipse TE2000-U, Tokyo, Japan). The following acquisition parameters were employed over time: Image scaling: Low = 130; High = 2,900; Exposure Time = 100 ms and Binning = 1. The fluorescence intensity of the tumor in the embryos was measured and the percentage of tumor growth inhibition was calculated according to the following formula: Inhibitionrate(%)=Z(Negativecontrol)-Z(Treatment)/Z(Negativecontrol)×100%

zebrafish (ABiC) embryos = assay: Zebrafish embryo developmental toxicity assay; assay type: in vivo, zebrafish (Danio rerio); conditions: for survival rate of embryos compared with untreated and DMSO treated embryos: 50, 100 and 150 μM, 96 hpf

SMILES | EAC Q3 early apoptotic cells, fold change (HT-29 cells; 50 μM) | LA/NC Q2 late apoptotic or/and necrotic cells, fold change (HT-29 cells; 50 μM) | Q1 + Q2 total dead cells, fold change (HT-29 cells; 50 μM) | Q1 dead cells, fold change (HT-29 cells; 50 μM) | Q2 + Q3 total apoptotic cells, fold change (HT-29 cells; 50 μM) | EAC Q3 early apoptotic cells, fold change (HT-29 cells; 100 μM) | LA/NC Q2 late apoptotic or/and necrotic cells, fold change (HT-29 cells; 100 μM) | Q1 + Q2 total dead cells, fold change (HT-29 cells; 100 μM) | Q1 dead cells, fold change (HT-29 cells; 100 μM) | Q2 + Q3 total apoptotic cells, fold change (HT-29 cells; 100 μM) | EAC Q3 early apoptotic cells, fold change (HT-29 cells; 200 μM) | LA/NC Q2 late apoptotic or/and necrotic cells, fold change (HT-29 cells; 200 μM) | Q1 + Q2 total dead cells, fold change (HT-29 cells; 200 μM) | Q1 dead cells, fold change (HT-29 cells; 200 μM) | Q2 + Q3 total apoptotic cells, fold change (HT-29 cells; 200 μM) | viability at 50 µM (HT-29 cells; 50 μM) | viability at 100 µM (HT-29 cells; 100 μM) | viability at 200 µM (HT-29 cells; 200 μM) | inhibition of tumor growth rate [2] | tumor growth reduction [2] | also measured
O=C1N[C@@H](Cc2ccc(O)cc2)C(=O)N2CCC[C@@H]12 [DKP-4, cyclo (L-Pro-L-Tyr)] | 20.5 fold | 8.4 fold | 3.0 fold | 1.5 fold | 12.6 fold | 18.4 fold | 14.6 fold | 3.9 fold | 1.0 fold | 15.9 fold | 10.8 fold | 18.0 fold | 5.5 fold | 2.1 fold | 15.5 fold | 57.6% | 52% | 46.5% | 60% | 74% | Cytc protein expression up-regulation [1]: 1.85 fold; inhibition of tumor growth [2]: > 30%; survival rate of embryos compared with untreated and DMSO treated embryos (zebrafish (ABiC) embryos): no significant decrease
CC(C)C[C@@H]1NC(=O)[C@@H]2CCCN2C1=O [DKP-1, cyclo (L-Pro-L-Leu)] | – | 2.3 fold | 1.7 fold | 1.5 fold | 2.3 fold | – | 2.6 fold | 3.0 fold | 3.1 fold | 3.6 fold | – | 9.9 fold | 3.3 fold | 1.1 fold | 11.4 fold | 83.3% | 69.7% | 56.3% | 57% | 68% | Cytc protein expression up-regulation [1]: 1.21 fold; survival rate of embryos compared with untreated and DMSO treated embryos (zebrafish (ABiC) embryos): no significant decrease
O=C1N[C@@H](Cc2ccccc2)C(=O)N2CCC[C@@H]12 [DKP-3, cyclo (L-Pro-L-Phe)] | 16.5 fold | 10.5 fold | 3.3 fold | 1.7 fold | 12.7 fold | 17.4 fold | 14.9 fold | 3.8 fold | 1.4 fold | 15.9 fold | 22.3 fold | 15.6 fold | 3.8 fold | 1.3 fold | 18.1 fold | 55.8% | 50% | 45.4% | 68% | 81% | Cytc protein expression up-regulation [1]: 1.45 fold; inhibition of tumor growth [2]: > 30%; tumor growth inhibition rates compared to other peptides ([2]; all time intervals, different doses): highest tumor growth inhibition rates; survival rate of embryos compared with untreated embryos (zebrafish (ABiC) embryos; lower doses (50 and 150 μM)): higher
CC(C)[C@@H]1NC(=O)[C@@H]2CCCN2C1=O [DKP-2, cyclo (L-Pro-L-Val)] | 3.0 fold | 2.5 fold | 1.7 fold | 1.5 fold | 2.7 fold | 4.5 fold | 3.5 fold | 3.1 fold | 3.0 fold | 3.9 fold | 10.6 fold | 11.2 fold | 3.5 fold | 1.2 fold | 11.0 fold | 79.3% | 64.2% | 52.5% | 58% | 78% | inhibition of tumor growth [2]: > 30%; survival rate of embryos compared with untreated and DMSO treated embryos (zebrafish (ABiC) embryos): no significant decrease
